Data on ten molecules can be found in US20240246955A1, “TROPOMYOSIN RECEPTOR KINASE (TRK) DEGRADATION COMPOUNDS AND METHODS OF USE” (CULLGEN (SHANGHAI), INC., priority 2021, published 2024).

Each structure is given as a SMILES string.

One test deals with KM12 cells. In words: KM12 cell viability assay (CellTiter-Glo). The conditions noted are these: for IC50: Homo sapiens, 72 h, KM12 cells, 3 days, CellTiter-Glo; for viability of KM12 cells: 11-point 3-fold serial dilution, 3 days (FIG. 3). The class given is cell-based. As for the experimental part:
The kinase activity of TRK is known to play important roles in tumors expressing TRK-fusion proteins, as TRK kinase inhibitors compromise cell proliferation, survival, and induce marked clinical responses (Amatu et al., 2016; Drilon et al., 2018; Drilon et al., 2017; Khotskaya et al., 2017). KM12 cells seeded in 96-well plates were treated with heterobifunctional compounds following a 11-point 3-fold serial dilution. Three days after treatment, cell viability was determined using the CellTiter-Glo kit, and normalized to the mean values of 3 replicates of untreated cells. Dose-dependent response was analyzed following the least-squares non-linear regression method using the GraphPad Prism software. Each data point in the figure represents the mean values of three technical replicates ±standard deviation.
KM12 cells seeded in 96-well plates were treated with heterobifunctional compounds following a 11-point 3-fold serial dilution for 3 days.
KM12, TRKA G595R mutated KM12, HEL, and other cells were cultured at 37° C. with 5% CO2 in DMEM or RPMI 1640 Medium supplemented with 10% fetal bovine serum. Cells were authenticated using the short tandem repeat (STR) assays. Mycoplasma test results were negative.
Cells were seeded at a density of 5000 cells per well in 96-well assay plates and treated with test compounds following a 11-point 3-fold serial dilution. Three days later, cell viability was determined using the CellTiter-Glo assay kit (Promega) according to the manufacturer's instructions. The dose-response curves were determined and IC50 values were calculated using the GraphPad Prism software following a nonlinear regression (least squares fit) method.

A further test deals with T1, TPM3-TRKA fusion protein (Homo sapiens, UniProt P04629).
T1 construct: TPM3 (N-terminal part of tropomyosin alpha-3, natural fusion partner); endogenous in cells; host or cells: KM12 colon cancer cells; the other entry of the earlier key: TPM3 (P06753, Tropomyosin alpha-3 chain)
The experiment in a line: TPM3-TRKA degradation in KM12 cells (Western blot). The conditions noted are these: 16 hours, TRK protein, immunoblot; for inhibition at 0.01 µM: 10 nM; for inhibition at 0.1 µM: 100 nM. The class given is cell-based. As for the experimental part: Specific exemplary heterobifunctional compounds were characterized in KM12 cells. KM12 cells that express TPM3-TRKA fusion protein were treated with 10 nM or 100 nM heterobifunctional compounds disclosed herein or their corresponding warheads/inhibitors for 16 hours. Cells were collected, lysed and subject to immunoblotting using an antibody specific to TRK proteins.
KM12 cells were treated with heterobifunctional compounds at 10 nM or 100 nM for 16 hours.
Cultured cells were washed with cold PBS once and lysed in cold RIPA buffer supplemented with protease inhibitors and phosphatase inhibitors (Beyotime Biotechnology). The solutions were then incubated at 4° C. for 30 minutes with gentle agitation to fully lyse cells. Cell lysates were centrifuged at 13,000 rpm for 10 minutes at 4° C. and pellets were discarded. Total protein concentrations in the lysates were determined by BCA assays (Beyotime Biotechnology). Cell lysates were mixed with Laemmli loading buffer to 1× and heated at 99° C. for 5 min. Proteins were resolved on SDS-PAGE and visualized by chemiluminescence. Images were taken by a ChemiDoc MP Imaging system (Bio-Rad). Protein bands were quantitated using the software provided by Bio-Rad.
The percentage of TRK protein degradation of each compound at 10 nM and 100 nM was determined in KM12 cells as described in Methods. The percentage of degradation of each compound was indicated in the following categories: N/A: data not available; −: no degradation; +: degradation less than 50%; ++: degradation equal or greater than 50% but less than […]; +++: degradation equal or greater than 80%.
A general note: Immunoblotting shows a protein as a band on a membrane.

In general, IC50 refers to the point on the concentration scale where inhibition reaches its midpoint. Lower therefore signals higher potency. A word on the inhibition: it is the relative decrease from the control value, in per cent.

T1 sequence (P04629 with tags, fused parts or gaps): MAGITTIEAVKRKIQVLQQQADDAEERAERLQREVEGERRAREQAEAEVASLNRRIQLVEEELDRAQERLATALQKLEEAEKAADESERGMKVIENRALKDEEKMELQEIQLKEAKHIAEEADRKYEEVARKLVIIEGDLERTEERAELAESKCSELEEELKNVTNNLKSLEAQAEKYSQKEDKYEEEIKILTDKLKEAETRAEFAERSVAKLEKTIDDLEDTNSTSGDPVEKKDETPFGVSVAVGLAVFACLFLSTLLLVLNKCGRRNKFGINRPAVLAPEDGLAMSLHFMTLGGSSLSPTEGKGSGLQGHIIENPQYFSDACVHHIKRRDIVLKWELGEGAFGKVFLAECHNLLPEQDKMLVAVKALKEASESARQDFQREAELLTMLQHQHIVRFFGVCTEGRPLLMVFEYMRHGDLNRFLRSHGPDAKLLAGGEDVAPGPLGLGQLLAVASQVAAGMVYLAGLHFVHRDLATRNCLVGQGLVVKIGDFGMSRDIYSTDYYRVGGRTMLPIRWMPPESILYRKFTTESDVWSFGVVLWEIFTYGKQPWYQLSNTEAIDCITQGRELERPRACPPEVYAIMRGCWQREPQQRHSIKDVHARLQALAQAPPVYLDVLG

Molecule `COCCN1C[C@@H](NC(=O)Nc2c(C)c(-c3cnc(N4CCN(C(=O)CCOCCOCCOCCOCCOCCNC(=O)C[C@H](NC(=O)[C@@H]5C[C@@H](O)CN5C(=O)[C@@H](NC(=O)C5(F)CC5)C(C)(C)C)c5ccc(-c6scnc6C)cc5)CC4)nc3)nn2-c2ccccc2)[C@H](c2cccc(F)c2)C1` [CPD-001, (2S,4R)-1-((S)-2-(1-fluorocyclopropane-1-carboxamido)-3,3-dimethylbutanoyl)-N-((S)-22-(4-(5-(5-(3-((3S,4R)-4-(3-fluorophenyl)-1-(2-methoxyethyl)pyrrolidin-3-yl)ureido)-4-methyl-1-phenyl-1H-pyrazol-3-yl)pyrimidin-2-yl)piperazin-1-yl)-1-(4-(4-methylthiazol-5-yl)phenyl)-3,22-dioxo-7,10,13,16,19-pentaoxa-4-azadocosyl)-4-hydroxypyrrolidine-2-carboxamide] showed an IC50 in the test with KM12 cells of 518 nM.

Turning to `COCCN1C[C@@H](NC(=O)Nc2c(C)c(-c3cnc(N4CCN(C(=O)CCCNc5ccc6c(c5)C(=O)N(C5CCC(=O)NC5=O)C6=O)CC4)nc3)nn2-c2ccccc2)[C@H](c2cccc(F)c2)C1` (stereo partly drawn) [CPD-002, 1-(3-(2-(4-(4-((2-(2,6-dioxopiperidin-3-yl)-1,3-dioxoisoindolin-5-yl)amino)butanoyl)piperazin-1-yl)pyrimidin-5-yl)-4-methyl-1-phenyl-1H-pyrazol-5-yl)-3-((3S,4R)-4-(3-fluorophenyl)-1-(2-methoxyethyl)pyrrolidin-3-yl)urea], in the test with KM12 cells, the “viability of KM12 cells” value is on record as “inhibited the viability” and the midpoint of inhibition, the IC50, lay at 9.7 nM. On TPM3-TRKA fusion protein, the inhibition at 0.01 µM is > 80% and the inhibition at 0.1 µM is > 80%.

Regarding `COCCN1C[C@@H](NC(=O)Nc2c(C)c(-c3cnc(N4CCN(C(=O)CNc5cccc6c5C(=O)N(C5CCC(=O)NC5=O)C6=O)CC4)nc3)nn2-c2ccccc2)[C@H](c2cccc(F)c2)C1` (stereo partly drawn) [CPD-003, 1-(3-(2-(4-((2-(2,6-dioxopiperidin-3-yl)-1,3-dioxoisoindolin-4-yl)glycyl)piperazin-1-yl)pyrimidin-5-yl)-4-methyl-1-phenyl-1H-pyrazol-5-yl)-3-((3S,4R)-4-(3-fluorophenyl)-1-(2-methoxyethyl)pyrrolidin-3-yl)urea], in the test on KM12 cells, the “viability of KM12 cells” value is recorded as “inhibited the viability” and half-maximal inhibition (IC50) required 5.1 nM. For the same molecule, on TPM3-TRKA fusion protein, the inhibition at 0.01 µM is > 80% and the inhibition at 0.1 µM was > 80%.

In the case of `COCCN1C[C@@H](NC(=O)Nc2c(C)c(-c3cnc(N4CCN(C(=O)CCCNc5cccc6c5C(=O)N(C5CCC(=O)NC5=O)C6=O)CC4)nc3)nn2-c2ccccc2)[C@H](c2cccc(F)c2)C1` (stereo partly drawn) [CPD-004, 1-(3-(2-(4-(4-((2-(2,6-dioxopiperidin-3-yl)-1,3-dioxoisoindolin-4-yl)amino)butanoyl)piperazin-1-yl)pyrimidin-5-yl)-4-methyl-1-phenyl-1H-pyrazol-5-yl)-3-((3S,4R)-4-(3-fluorophenyl)-1-(2-methoxyethyl)pyrrolidin-3-yl)urea], in the test on KM12 cells, the IC50 worked out at 25.8 nM. Further, at TPM3-TRKA fusion protein, the inhibition at 0.01 µM lay in the range of 50 to 800% and the inhibition at 0.1 µM lay in the range of 50 to 800%.

Molecule `COCCN1C[C@@H](NC(=O)Nc2c(C)c(-c3cnc(N4CCN(C(=O)CCOCCOCCOCCNc5cccc6c5C(=O)N(C5CCC(=O)NC5=O)C6=O)CC4)nc3)nn2-c2ccccc2)[C@H](c2cccc(F)c2)C1` (stereo partly drawn) [CPD-005, 1-(3-(2-(4-(3-(2-(2-(2-((2-(2,6-dioxopiperidin-3-yl)-1,3-dioxoisoindolin-4-yl)amino)ethoxy)ethoxy)ethoxy)propanoyl)piperazin-1-yl)pyrimidin-5-yl)-4-methyl-1-phenyl-1H-pyrazol-5-yl)-3-((3S,4R)-4-(3-fluorophenyl)-1-(2-methoxyethyl)pyrrolidin-3-yl)urea] showed an IC50 in the test on KM12 cells of 47.3 nM. Further, on TPM3-TRKA fusion protein, the inhibition at 0.01 µM is > 80% and the inhibition at 0.1 µM is > 80%.

On to `COCCN1C[C@@H](NC(=O)Nc2c(C)c(-c3cnc(N4CCN(C(=O)CCCCCCCNc5ccc6c(c5)C(=O)N(C5CCC(=O)NC5=O)C6=O)CC4)nc3)nn2-c2ccccc2)[C@H](c2cccc(F)c2)C1` (stereo partly drawn) [CPD-006, 1-(3-(2-(4-(8-((2-(2,6-dioxopiperidin-3-yl)-1,3-dioxoisoindolin-5-yl)amino)octanoyl)piperazin-1-yl)pyrimidin-5-yl)-4-methyl-1-phenyl-1H-pyrazol-5-yl)-3-((3S,4R)-4-(3-fluorophenyl)-1-(2-methoxyethyl)pyrrolidin-3-yl)urea], for which the 50% inhibitory concentration (IC50) in the test on KM12 cells turned out to be 10.3 nM. Further, at TPM3-TRKA fusion protein, the inhibition at 0.01 µM was > 80% and the inhibition at 0.1 µM was > 80%.

As to `COCCN1C[C@@H](NC(=O)Nc2c(C)c(-c3cnc(N4CCN(C(=O)CCCCCNc5cccc6c5C(=O)N(C5CCC(=O)NC5=O)C6=O)CC4)nc3)nn2-c2ccccc2)[C@H](c2cccc(F)c2)C1` (stereo partly drawn) [CPD-007, 1-(3-(2-(4-(6-((2-(2,6-dioxopiperidin-3-yl)-1,3-dioxoisoindolin-4-yl)amino)hexanoyl)piperazin-1-yl)pyrimidin-5-yl)-4-methyl-1-phenyl-1H-pyrazol-5-yl)-3-((3S,4R)-4-(3-fluorophenyl)-1-(2-methoxyethyl)pyrrolidin-3-yl)urea], 10.6 nM corresponded to half-maximal inhibition with KM12 cells (IC50). Further, at TPM3-TRKA fusion protein, the inhibition at 0.01 µM is > 80% and the inhibition at 0.1 µM is > 80%.

`COCCN1C[C@@H](NC(=O)Nc2c(C)c(-c3cnc(N4CCN(C(=O)CCCCCNc5ccc6c(c5)C(=O)N(C5CCC(=O)NC5=O)C6=O)CC4)nc3)nn2-c2ccccc2)[C@H](c2cccc(F)c2)C1` (stereo partly drawn) [CPD-008, 1-(3-(2-(4-(6-((2-(2,6-dioxopiperidin-3-yl)-1,3-dioxoisoindolin-5-yl)amino)hexanoyl)piperazin-1-yl)pyrimidin-5-yl)-4-methyl-1-phenyl-1H-pyrazol-5-yl)-3-((3S,4R)-4-(3-fluorophenyl)-1-(2-methoxyethyl)pyrrolidin-3-yl)urea] showed an IC50 in the test on KM12 cells of 10.6 nM. Also, at TPM3-TRKA fusion protein, the inhibition at 0.01 µM was > 80% and the inhibition at 0.1 µM is > 80%.

In turn, `COCCN1C[C@@H](NC(=O)Nc2c(C)c(-c3cnc(N4CCN(C(=O)CCCCCCCNc5cccc6c5C(=O)N(C5CCC(=O)NC5=O)C6=O)CC4)nc3)nn2-c2ccccc2)[C@H](c2cccc(F)c2)C1` (stereo partly drawn) [CPD-009, 1-(3-(2-(4-(8-((2-(2,6-dioxopiperidin-3-yl)-1,3-dioxoisoindolin-4-yl)amino)octanoyl)piperazin-1-yl)pyrimidin-5-yl)-4-methyl-1-phenyl-1H-pyrazol-5-yl)-3-((3S,4R)-4-(3-fluorophenyl)-1-(2-methoxyethyl)pyrrolidin-3-yl)urea] gave an IC50 with KM12 cells of 13.6 nM. On TPM3-TRKA fusion protein, the inhibition at 0.01 µM was > 80% and the inhibition at 0.1 µM was > 80%.

In turn, `COCCN1C[C@@H](NC(=O)Nc2c(C)c(-c3cnc(N4CCN(C(=O)CCOCCOCCOCCOCCNc5cccc6c5C(=O)N(C5CCC(=O)NC5=O)C6=O)CC4)nc3)nn2-c2ccccc2)[C@H](c2cccc(F)c2)C1` (stereo partly drawn) [CPD-010, 1-(3-(2-(4-(1-((2-(2,6-dioxopiperidin-3-yl)-1,3-dioxoisoindolin-4-yl)amino)-3,6,9,12-tetraoxapentadecan-15-oyl)piperazin-1-yl)pyrimidin-5-yl)-4-methyl-1-phenyl-1H-pyrazol-5-yl)-3-((3S,4R)-4-(3-fluorophenyl)-1-(2-methoxyethyl)pyrrolidin-3-yl)urea] returned a half-inhibitory concentration (IC50) with KM12 cells of 86.1 nM. Moreover, at TPM3-TRKA fusion protein, the inhibition at 0.01 µM is 50 to 800% and the inhibition at 0.1 µM is > 80%.
